These results are taken from US20070072807A1, “Method of screening compounds” (SmithKline Beecham Corporation & SmithKline Beecham p.l.c., priority 1999, published 2007).

For assay [1], the target named is T1, Asp1 (Homo sapiens, UniProt Q9Y5Z0).
T1 construct: A cDNA fragment encoding Asp1(EP0848062), amino acids 1 to 473; made in house; host or cells: CHO E1A (Chinese hamster ovary)
The assay is described as follows: Fluorescence Resonance Energy Transfer (FRET) cleavage assay for Asp1. In kind it is biochemical. The text has this: Fluorescence Resonsance Energy Transfer (FRET) Cleavage Assay for Asp1
A peptide (X) based on the sequence of the Swedish variant APP beta-site sequence has been doubly labelled for use in a FRET assay. [drawing 2] [drawing 3] This peptide includes the 11 residues spanning the Swedish variant beta-cleavage site (Ile-Ser-Glu-Val-Asn-Leu-Asp-Ala-Glu-Phe-Arg SEQ ID NO:2) with an N-terminal rhodamine green group and C-terminal tetramethylrhodamine group. This would allow cleavage of the intervening peptide sequence by Asp1 to be monitored by energy transfer between the two fluorescent groups.
In practice assays were conducted as follows:
The fluorescent peptide substrate (0.5 uM) was incubated with Asp1-Fc enzyme prepared as described above in a buffer containing 50 mM sodium acetate, 20 mM sodium chloride, 5% glycerol, 0.1% CHAPS (3-[(3-Cholamidopropyl)dimethylammonio]-1-propane-sulphonate), pH 3.8). The assays were started by addition of enzyme (50 nM final concentration) and cleavage monitored on a fluorescent platereader with 485 nm excitation, 538 nm emission. The C-terminal TAMRA group of the peptide acted as effective quencher, thus an increase in rhodamine green intensity was observed upon cleavage.
This assay was used to determine IC50 and Ki values for compounds of interest. […] Asp1 Fluorescence Polarisation Assay.

Assay [2] has as its target T1, Asp1. The assay is described as follows: Asp1 fluorescence polarisation (competition) binding assay. The procedure: A competition assay has also been designed to identify compounds acting at the Asp1 active site. The hydroxyethylene inhibitor (I) has been modified by addition of 5-, 6-rhodamine green to the free N-terminal amine of the compound to create labelled ligand (II). [drawing 5]
The resulting compound was tested experimentally as follows to determine the Kd with Asp1-Fc enzyme, prepared as above.
A three dimensional analysis varying enzyme and ligand (II) was performed. Ligand concentration range was 1, 3, 10, 30 and 100 nM. Enzyme concentration range was from 100 nM down in serial twofold dilutions (11 dilutions+no enzyme control).
Ligand of appropriate concentration was prepared in 5% DMSO. The enzyme solutions were prepared in 2 times (×2) assay buffer (where ×1=50 mM sodium acetate, 20 mM sodium chloride, 5% glycerol, 0.1% CHAPS, pH 3.8). 5 ul of the enzyme solution (of varying concentration) was mixed with 5 ul of the ligand (of varying concentration) in a low volume 384 microtitre plate. The samples were allowed to equilibrate for 15 min before the fluorescence polarisation was read on an LJL ACQUEST platereader.
The Anisotropy values were plotted and the Kd for the tight binding interaction obtained.
Enzyme (at a fixed concentration of 50 nM), ligand (II) (at a fixed concentration of 5.0 nM) and test compound (5 uM down in twofold serial dilutions) were mixed in ×1 assay buffer in a final assay volume of 10 ul and allowed to equilibrate for 3 hrs. The fluorescence polarisation was then read. The experiment was performed in duplicate.
(In general: In fluorescence polarisation assays a small probe gives low polarisation when free and higher when bound to something large.)

Numbered stars: 1 amine (or outer) side, 2 acyl side, 3 side chain; on linkers, the order of the positions; unused ones are H or OH. Square brackets hold non-standard residues; d marks the D form. Peptide text beside a SMILES is read from it. * marks the point of attachment. Hexanoyl(5S-NH,4S-OH,6-Ph) = O=C(CC[C@H](O)[C@H](Cc1ccccc1)N[*:1])[*:2]; X2 = Nc1ccc2c(c1)Oc1ccccc1C21OC(=O)c2cc(C(=O)*)ccc21; X1 = CC(C)C[C@H](N[*:1])[C@@H](O)CCC(=O)[*:2]

T1 sequence (Q9Y5Z0 with tags, fused parts or gaps limits assumed): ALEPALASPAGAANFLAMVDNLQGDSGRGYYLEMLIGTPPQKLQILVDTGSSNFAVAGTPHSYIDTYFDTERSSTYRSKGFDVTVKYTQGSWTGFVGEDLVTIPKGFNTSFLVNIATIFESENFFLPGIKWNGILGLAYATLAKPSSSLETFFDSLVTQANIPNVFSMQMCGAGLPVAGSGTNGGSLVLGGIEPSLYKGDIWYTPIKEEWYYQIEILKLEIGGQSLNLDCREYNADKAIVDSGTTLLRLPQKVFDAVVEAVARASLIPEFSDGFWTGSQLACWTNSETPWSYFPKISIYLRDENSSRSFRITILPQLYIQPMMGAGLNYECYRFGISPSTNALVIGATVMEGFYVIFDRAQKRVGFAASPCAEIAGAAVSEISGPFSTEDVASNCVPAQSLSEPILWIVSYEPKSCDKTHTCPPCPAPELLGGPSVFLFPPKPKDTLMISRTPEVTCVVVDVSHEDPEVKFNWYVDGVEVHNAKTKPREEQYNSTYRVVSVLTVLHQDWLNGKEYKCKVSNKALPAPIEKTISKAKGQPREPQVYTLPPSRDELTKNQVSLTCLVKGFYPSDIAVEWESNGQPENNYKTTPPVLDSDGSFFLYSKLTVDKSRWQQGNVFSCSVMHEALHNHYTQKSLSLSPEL

Usually IC50 stands for the concentration that inhibits the measured activity by half. As usually defined, the Ki is the equilibrium dissociation constant of an inhibitor or competing ligand from its target. For the compound `CC(C)C[C@H](NC(=O)[C@H](C)NC(=O)[C@@H](NC(=O)[C@@H](N)CCC(=O)O)C(C)C)[C@@H](O)CCC(=O)N[C@@H](C)C(=O)N[C@@H](CCC(=O)O)C(=O)N[C@@H](Cc1ccccc1)C(=O)O` [Compound (III)] (H-EVA[X1]AEF-OH), the IC50 in assay [1] (FRET cleavage assay, Asp1-Fc enzyme) is 60 nM. In assay [2] (at the highest concentrations of test compound (5 uM down in twofold serial dilutions)), the “displacement of the fluorescent ligand (II)” value is on record as “Complete displacement”. Also, the inhibition constant (Ki) in assay [2] (competition against ligand (II) 5.0 nM, enzyme 50 nM, equilibrated 3 hrs, duplicate) is 50 nM.
On to `CC(C)[C@H](NC(=O)[C@@H](N)CCC(=O)O)C(=O)N[C@@H](CC(N)=O)C(=O)N[C@@H](Cc1ccccc1)[C@@H](O)CCC(=O)N[C@@H](C)C(=O)N[C@@H](CCC(=O)O)C(=O)N[C@@H](Cc1ccccc1)C(=O)O` [compound (I)] (H-EVN[Hexanoyl(5S-NH,4S-OH,6-Ph)]AEF-OH), for which the Ki in assay [1] (Asp1-Fc enzyme 50 nM, fluorescent peptide substrate 0.5 uM, pH 3.8) came out at 2.5 nM.
One may read the Kd as a measure of binding affinity in units of concentration. In the case of `CC(C)[C@H](NC(=O)[C@H](CCC(=O)O)NC(=O)c1ccc2c(c1)C(=O)OC21c2ccccc2Oc2cc(N)ccc21)C(=O)N[C@@H](CC(N)=O)C(=O)N[C@@H](Cc1ccccc1)[C@@H](O)CCC(=O)N[C@@H](C)C(=O)N[C@@H](CCC(=O)O)C(=O)N[C@@H](Cc1ccccc1)C(=O)O` (stereo partly drawn) [ligand (II)] (X2-EVN[Hexanoyl(5S-NH,4S-OH,6-Ph)]AEF-OH), the Kd in assay [2] (tight binding interaction of labelled ligand with Asp1-Fc enzyme, from anisotropy values, pH 3.8) came to 0.075 nM.
